Laboratory results as given in patent US20160090556A1, “PRODUCTS COMPRISING MALODOR REDUCTION MATERIALS” (The Procter & Gamble Company, priority 2014, published 2016).
Like-named read-outs stand apart in the source and are kept apart here.

Experiment: Liquid dish neat product liquid-air partition coefficient
Format: physicochemical
[1] = class code letter within Comment Code
[2] = codes K/L of the Comment Code, Table 1

Compound	Comment Code: Log of liquid dish neat product liquid-air partition coefficient (code letters K, L)	other results
CC1(C)CCCC2=C1CC(C=O)CC2 (stereo not shown) [Material 486]	–	Log of liquid dish neat product liquid-air partition coefficient (Comment Code K/L) [1]: K (Log of liquid dish neat product liquid-air partition coefficient greater than or equal to −7)
COC(Cc1ccccc1)OC [Material 627]	K (Log of liquid dish neat product liquid-air partition coefficient greater than or equal to −7)	Log of liquid dish neat product liquid-air partition coefficient (Comment Code K/L): K (Log of liquid dish neat product liquid-air partition coefficient greater than or equal to −7)
CCOC1CCC(C(C)(C)CC)CC1 (stereo not shown) [Material 12]	K (Log of liquid dish neat product liquid-air partition coefficient greater than or equal to −7)	–
CC1(C)C2CCC3(C2)C1C1(CCC3(C)C)OCCO1 (stereo not shown) [Material 1145]	K (Log of liquid dish neat product liquid-air partition coefficient greater than or equal to −7)	Comment Code: Log of liquid dish neat product liquid-air partition coefficient [2]: K (Log of liquid dish neat product liquid-air partition coefficient greater than or equal to −7)
COc1ccc(CC(C)=O)cc1 [Material 983]	K (Log of liquid dish neat product liquid-air partition coefficient greater than or equal to −7)	–
CCCCCCCCCCCCCC(=O)OC(C)C [Material 196]	–	Log of liquid dish neat product liquid-air partition coefficient (Comment Code K/L) [1]: K (Log of liquid dish neat product liquid-air partition coefficient greater than or equal to −7)
COCc1ccc(O)c(OC)c1 [Material 1113]	–	Comment Code: Log of liquid dish neat product liquid-air partition coefficient [2]: K (Log of liquid dish neat product liquid-air partition coefficient greater than or equal to −7)
CC=Cc1ccc(OCC)c(O)c1 [Material 1112]	K (Log of liquid dish neat product liquid-air partition coefficient greater than or equal to −7)	–
CCCCCCCC1(C)OCC(C)O1 (stereo not shown) [Material 838]	K (Log of liquid dish neat product liquid-air partition coefficient greater than or equal to −7)	–
CC(=O)OCCC1=CCC2CC1C2(C)C (stereo not shown) [Material 47]	–	Log of liquid dish neat product liquid-air partition coefficient (Comment Code K/L) [1]: K (Log of liquid dish neat product liquid-air partition coefficient greater than or equal to −7)
OCCCc1ccccc1 [Material 254]	–	Log of liquid dish neat product liquid-air partition coefficient (Comment Code K/L) [1]: K (Log of liquid dish neat product liquid-air partition coefficient greater than or equal to −7)
CC=CC(=O)C1C(C)=CCCC1(C)C (stereo not shown) [Material 1074]	K (Log of liquid dish neat product liquid-air partition coefficient greater than or equal to −7)	–
C=C(C)C1CC=C(C)C(O)C1 (stereo not shown) [Material 531]	–	Log of liquid dish neat product liquid-air partition coefficient (Comment Code K/L) [1]: K (Log of liquid dish neat product liquid-air partition coefficient greater than or equal to −7)
N#C/C=C/c1ccccc1 [Material 556]	K (Log of liquid dish neat product liquid-air partition coefficient greater than or equal to −7)	–
CC1=CC[C@@H]2C3CC([C@@H]2C1)[C@@]1(C3)OC1C (stereo partly shown) [Material 1007]	K (Log of liquid dish neat product liquid-air partition coefficient greater than or equal to −7)	Log of liquid dish neat product liquid-air partition coefficient (Comment Code K/L): K (Log of liquid dish neat product liquid-air partition coefficient greater than or equal to −7)
C=CCCC(=O)C1=CCCC2(CCCC2)C1 [Material 1038]	K (Log of liquid dish neat product liquid-air partition coefficient greater than or equal to −7)	Log of liquid dish neat product liquid-air partition coefficient (Comment Code K/L): K (Log of liquid dish neat product liquid-air partition coefficient greater than or equal to −7)
CC1(C)C2CCC3(C2)C1C1(CCC3(C)C)OCCO1 (stereo not shown) [Material 1144]	K (Log of liquid dish neat product liquid-air partition coefficient greater than or equal to −7)	Comment Code: Log of liquid dish neat product liquid-air partition coefficient [2]: K (Log of liquid dish neat product liquid-air partition coefficient greater than or equal to −7)
